Test results from the NIST ThermoML archive (doi:10.1021/acs.jced.5b00367).
± gives the expanded uncertainty stated by the source.

Test: mn = molality of the nth substance listed, in mol/kg
Settings: 303.15 K, 100 kPa, Liquid, Alternating current cell with electrodes

Question: With `CCCCCCCCCCCCCCCC[N+](C)(C)C.[Br-]` [N,N,N-trimethyl-1-hexadecanaminium bromide] + O as the compound, how does the electrical conductivity (m1 = 0.0002) read?
Answer: 0.0028 ± 0.0011 S/m

Question: And the electrical conductivity (m1 = 0.0005)?
Answer: 0.0061 ± 0.0024 S/m

Question: And the electrical conductivity (m1 = 0.0008)?
Answer: 0.0092 ± 0.0037 S/m

Question: And the electrical conductivity (m1 = 0.00085)?
Answer: 0.01 ± 0.004 S/m

Question: What about the electrical conductivity (m1 = 0.0009) of the same compound?
Answer: 0.0103 ± 0.0041 S/m

Question: And the electrical conductivity (m1 = 0.001)?
Answer: 0.011 ± 0.0044 S/m

Question: What about the electrical conductivity (m1 = 0.0012) of the same compound?
Answer: 0.012 ± 0.0048 S/m

Question: What about the electrical conductivity (m1 = 0.0014) of the same compound?
Answer: 0.0128 ± 0.0051 S/m

Question: And the electrical conductivity (m1 = 0.0016)?
Answer: 0.0135 ± 0.0054 S/m

Question: And the electrical conductivity (m1 = 0.002)?
Answer: 0.0145 ± 0.0058 S/m

Question: With `CCCCCCCCCC[N+](CC)(CC)CCCCCCCCCC.[Br-]` [didecyldiethylammonium bromide] + O as the compound, how does the electrical conductivity (m1 = 1e-05) read?
Answer: 0.00039 ± 0.00019 S/m

Question: And the electrical conductivity (m1 = 2e-05)?
Answer: 0.0006 ± 0.00025 S/m

Question: What about the electrical conductivity (m1 = 3e-05) of the same compound?
Answer: 0.00072 ± 0.0003 S/m

Question: What about the electrical conductivity (m1 = 4e-05) of the same compound?
Answer: 0.00143 ± 0.00058 S/m

Question: And the electrical conductivity (m1 = 5e-05)?
Answer: 0.00224 ± 0.0009 S/m

Question: What about the electrical conductivity (m1 = 6e-05) of the same compound?
Answer: 0.00293 ± 0.0012 S/m

Question: What about the electrical conductivity (m1 = 0.0001) of the same compound?
Answer: 0.0034 ± 0.0014 S/m

Question: What about the electrical conductivity (m1 = 0.0005) of the same compound?
Answer: 0.0048 ± 0.0019 S/m

Question: And the electrical conductivity (m1 = 0.001)?
Answer: 0.0092 ± 0.0037 S/m

Question: And the electrical conductivity (m1 = 0.005)?
Answer: 0.0106 ± 0.0042 S/m

Question: And the electrical conductivity (m1 = 0.01)?
Answer: 0.0132 ± 0.0053 S/m

Question: And the electrical conductivity (m1 = 0.015)?
Answer: 0.016 ± 0.0064 S/m

Question: And the electrical conductivity (m1 = 0.02)?
Answer: 0.0182 ± 0.0073 S/m

Question: Which results are given for `CCCCCCCCCCCC[N+](CC)(CC)CCCCCCCCCCCC.[Br-]` [didodecyldiethylammonium bromide] + O?
Answer: electrical conductivity (m1 = 3e-05): 0.00146 ± 0.00059 S/m; electrical conductivity (m1 = 4e-05): 0.00189 ± 0.00076 S/m; electrical conductivity (m1 = 5e-05): 0.0025 ± 0.001 S/m; electrical conductivity (m1 = 6e-05): 0.0032 ± 0.0013 S/m; electrical conductivity (m1 = 0.0001): 0.00362 ± 0.0014 S/m; electrical conductivity (m1 = 0.0005): 0.00484 ± 0.0019 S/m; electrical conductivity (m1 = 0.001): 0.00678 ± 0.0027 S/m; electrical conductivity (m1 = 0.002): 0.00928 ± 0.0037 S/m; electrical conductivity (m1 = 0.003): 0.0121 ± 0.0049 S/m

Question: For `CCCCCCCCCCCCCCCC[N+](CC)(CC)CCCCCCCCCCCCCCCC.[Br-]` [diethyldihexadecylammonium bromide] + O, which electrical conductivity (m1 = 5e-06) is on record?
Answer: 0.00045 ± 0.00023 S/m

Question: And the electrical conductivity (m1 = 1e-05)?
Answer: 0.00081 ± 0.00035 S/m

Question: What about the electrical conductivity (m1 = 1.5e-05) of the same compound?
Answer: 0.00106 ± 0.00042 S/m

Question: What about the electrical conductivity (m1 = 3e-05) of the same compound?
Answer: 0.00114 ± 0.00046 S/m

Question: And the electrical conductivity (m1 = 4e-05)?
Answer: 0.00124 ± 0.0005 S/m

Question: And the electrical conductivity (m1 = 5e-05)?
Answer: 0.00132 ± 0.00053 S/m

Question: What about the electrical conductivity (m1 = 6e-05) of the same compound?
Answer: 0.00136 ± 0.00054 S/m

Question: With `CCCCCCCCCCCC[N+](C)(C)C.[Br-]` [dodecyltrimethylammonium bromide] + O as the compound, how does the electrical conductivity (m1 = 0.001) read?
Answer: 0.014 ± 0.0056 S/m

Question: What about the electrical conductivity (m1 = 0.005) of the same compound?
Answer: 0.055 ± 0.022 S/m

Question: What about the electrical conductivity (m1 = 0.01) of the same compound?
Answer: 0.1 ± 0.04 S/m

Question: What about the electrical conductivity (m1 = 0.012) of the same compound?
Answer: 0.12 ± 0.048 S/m

Question: And the electrical conductivity (m1 = 0.015)?
Answer: 0.15 ± 0.06 S/m

Question: And the electrical conductivity (m1 = 0.0181)?
Answer: 0.165 ± 0.066 S/m

Question: And the electrical conductivity (m1 = 0.0201)?
Answer: 0.165 ± 0.066 S/m

Question: And the electrical conductivity (m1 = 0.0252)?
Answer: 0.18 ± 0.072 S/m

Question: What about the electrical conductivity (m1 = 0.0302) of the same compound?
Answer: 0.195 ± 0.078 S/m

Question: What about the electrical conductivity (m1 = 0.0402) of the same compound?
Answer: 0.23 ± 0.092 S/m

Question: And the electrical conductivity (m1 = 0.0502)?
Answer: 0.26 ± 0.1 S/m
